In a melting point compilation (Tetko et al.; mined from patent text by program, amines drawn as free bases though some values may be those of a salt):

| melting point | Structure (SMILES) |
| --- | --- |
| 58 to 61 °C | N[C@@H](Cc1ccc(OCc2ccccc2)cc1)C(=O)NCCN1CCCCC1 |
| 92 to 93 °C | CCCCCCOc1cccc2c(OCCCCCC)cccc12 |
| 261 to 263 °C | CON1C(=O)CC2(CCN(C(=O)C3=C(C)NC(C)=C([N+](=O)[O-])C3c3ccccc3C(F)(F)F)CC2)C1=O (stereo unspecified) |
| 148 to 150 °C | Cc1cc2c(cc1Cl)C(CC(=O)O)(c1ccccc1OC(C)C)C(=O)N2 (stereo unspecified) |
| 160 to 164 °C | COc1c(Cc2c[nH]c3cccc(C(=O)O)c23)[nH]c(=O)c(CC(C)C)[n+]1[O-] |
| 91 to 93 °C | CC(=O)N(O)Cc1cccc(C#Cc2ccccc2)c1 |
| 159 to 160 °C | CN(C)c1ccc(C2OC(=O)c3cc(N(C)C)ccc32)c(Cl)c1 (stereo unspecified) |
| 145 to 150 °C | CC(O)C(CO)(Cc1cc(C(C)(C)C)c(O)c(C(C)(C)C)c1)Cc1cc(C(C)(C)C)c(O)c(C(C)(C)C)c1 (stereo unspecified) |
| 152 to 154 °C | CCc1cc(NCc2ccc(-c3ccccc3C#N)cc2)n2ncc(Cl)c2n1 |
| 208 to 211 °C | COc1ccc(N2CCN(c3c(C)c(C)c4c(c3C)C(c3ccc(C(F)(F)F)cc3)C(C)(C)O4)CC2)cc1 (stereo unspecified) |
| 253 to 255 °C | Cc1cccc(-c2nc(NC3CCCCC3)c3ccccc3n2)n1 |
| 100 to 102 °C | CCOc1nc(NCc2ccco2)nc(Nc2ccc(OC)c(OC)c2)n1 |
| 134 to 135 °C | CCOC(=O)c1cn(Cc2ccccc2)nc1OCc1ccc(OCc2nc(-c3ccco3)oc2C)c(-c2ccccc2)c1 |
| 125 to 126 °C | CCOC(=O)C1=C(C)NC(C)=C(C(=O)OCC)C1c1cccc(Br)c1 |
| 176 to 177 °C | O=C(Nc1ccccc1Oc1ccc(Cl)cc1Cl)C1CCN(C(=O)c2ccccc2)CC1 |
| 106 to 108 °C | CC(C)Cc1ccc(C(CC(=O)O)C(=O)O)s1 (stereo unspecified) |
| 245 to 246 °C | CNC(=NC#N)NCc1cccc(-c2csc(N=C(N)N)n2)n1 |
| 107 °C | O=S(=O)(c1ccc(CO)cc1)N1CCCC1c1ccc(F)cc1 (racemic) |
| 109 to 110 °C | C1CNCCNCCNCCNCCNC1 |

| melting point | Structure (SMILES) |
| --- | --- |
| 156 °C | O=C(O)COc1ccc(/C=C/C(=O)C(F)(F)F)cc1 |
| 273 °C | COc1ccc(NN=C2C(=O)Nc3ccc(C4=NNC(=O)SC4C)cc32)cc1 (stereo unspecified) |
| 187 to 189 °C | CCCCc1c2c(cc3ccc(O)cc13)-c1ccc(O)cc1CO2 |
| 238 °C | C#CCn1c(=O)c2c(nc(C#Cc3cccc(OC(C)=O)c3)n2C)n(C)c1=O |
| 65 to 66 °C | CCN(CC)CC(=O)Nc1ccc([N+](=O)[O-])cc1 |
| 131 to 134 °C | CCOc1cc2cc(CO)c(CO)c(-c3ccnc(-n4ccc5ccccc5c4=O)c3)c2cc1OCC |
| 101 to 102 °C | CCOC(=O)C1CCn2c1cc(C)c2C(=O)c1ccc(SC)n1C (stereo unspecified) |
| 139 to 140 °C | CN1CCc2ccc(OCCCCN3CCN(c4cccc(Cl)c4Cl)CC3)cc2NC1=O |
| 211 to 212 °C | COCc1[nH]c(=O)[nH]c1C(=O)c1ccc(OC)cc1 |
| 249 to 250 °C | Cc1ccnc(Nc2nc(-c3ccccc3O)cs2)c1 |
| 97 to 98 °C | CC(O)c1cc(C#C[Si](C)(C)C)c(O)c(Cl)n1 (stereo unspecified) |
| 95 °C | c1ccc(C(c2ccccc2)(c2ccccc2)N2CCc3sccc3C2)cc1 |
| 75 to 76 °C | CCCCCCCCCCCC(=O)N[C@H](CC(=O)c1ccc2ccccc2c1)C(=O)OCC |
| 101 °C | CC(C)C[C@H](NC(=O)OCc1ccccc1)C(=O)NC(Cc1ccc(F)cc1)C(=O)CSCc1ccco1 (stereo partly specified) |
| 96 to 98 °C | Cc1nc(-c2ccc(OCc3cccc(Cl)c3)cc2)no1 |
| 182 °C | CC1CC(=O)NN=C1c1ccc(N2CCN(C(=O)NCCCc3c[nH]cn3)CC2)c([N+](=O)[O-])c1 (stereo unspecified) |
| 77.5 to 78.5 °C | Cc1ccc(C(=O)CCCl)cc1 |
| 89 °C | Nc1cnccc1N1CCc2ccccc21 |
| 127 to 128 °C | CCOC(=O)c1cn(C2COC2)c2c(F)c(F)c(F)c(NCc3ccccc3)c2c1=O |

| melting point | Structure (SMILES) |
| --- | --- |
| 85 to 87 °C | CN1CC(CN)c2c[nH]c3cccc(c23)C1=O (stereo unspecified) |
| 64 °C | O=C1NC(=O)C(Cc2ccc(OCCN3c4ccccc4Sc4ccc(C(F)(F)F)cc43)cc2)S1 (stereo unspecified) |
| 77 to 80 °C | Cc1c(C#N)sc(Br)c1Br |
| 93 to 94 °C | O=C(OC[C@H]1CC(=O)[C@@H]1COC(=O)c1ccccc1)c1ccccc1 |
| 31 to 33 °C | CCCCCCCCCCCCCCCC(=O)OCc1ccco1 |
| 313 to 314 °C | N#Cc1ccc(-c2cnc3cnc(-c4ccc(O)cc4)nc3c2)cc1 |
| 130 to 131 °C | COc1ccc(-c2cc(=O)n(CC3CCCC3)nc2-c2ccc(OC)cc2)cc1 |
| 123 to 125 °C | COCCNC(=O)c1ccc(C(=O)N2CCN(c3ncccc3NCC(C)C)CC2)nc1 |
| 100 to 101 °C | COCOc1c(C)cc(-c2ccc(C(=O)OC)cc2)cc1C |
| 129 to 130 °C | O=C(O)C1CCCC1c1ccc2c(c1)OC[C@H](Cc1ccccc1)[C@H]2O (relative stereo) |
| 165 to 169 °C | Cn1ccc(O)cc1=O |
| 123 °C | O=C(CCCCCN1CCN(c2ccc3c(c2)CCCC3)CC1)N1Cc2ccccc2C1 |
| 152 to 153 °C | Cc1oc(-c2ccccc2)nc1COc1ccc2c(-c3ccccc3)c(CO)oc2c1 |
| 203 to 205 °C | CC(=O)OCCn1c([N+](=O)[O-])cnc1C=O |
| 290 to 293 °C | CCOC(=O)Cc1c[nH]c2cc(C(F)(F)F)nn2c1=O |
| 118 °C | O[C@@H]1C=C[C@H](n2cnc3c(Cl)ncnc32)C1 (racemic) |
| 175 to 177 °C | COc1ccc(CC(=O)O)c(C(=O)O)c1 |
| 95 to 96 °C | CC1CCC(C(C)C)C(OC(=O)[C@H]2C[C@@H]2C(=O)OC2CC(C)CCC2C(C)C)C1 (stereo partly specified) |

Second part, the compound before the results:

| Structure (SMILES) | melting point |
| --- | --- |
| NS(=O)(=O)c1ccc(-c2noc(-c3cnc4ccc(-c5ccc(C(F)(F)F)cc5)cn34)n2)s1 | 280 °C |
| CCC(Cc1cccc(NC(C)=O)c1)C(=O)O (stereo unspecified) | 131 to 132 °C |
| OC(CNCc1ccccc1)c1ccc(OCc2ccccc2)c(F)c1 (stereo unspecified) | 113 to 114 °C |
| N#Cc1cccc(C(=O)c2ccc(S)cc2)c1 | 126 °C |
| COc1ccc2c(c1OCc1ccccc1)CCCC2=O | 64 °C |
| CC(=Cc1cc(Cl)ccc1O)[N+](=O)[O-] | 104 to 106 °C |
| Cc1cccc(COc2cccc(OCc3ccc4cc(F)ccc4n3)c2)c1OCC(=O)O | 160 to 161 °C |
| CCCCc1nc2ccccn2c(=O)c1-c1ccc(Cl)c(C)c1 | 122 to 124 °C |
| CC(C)(C)C1=CC(O)(C(F)(F)F)C=C(C(C)(C)C)C1=O | 93 to 94 °C |
| N#Cc1c[nH]c2ncnc(N3CCCCC3)c12 | 209 to 211 °C |
| O=C(c1cc(Cl)nc(Cl)c1)n1ccnc1 | 148 to 151 °C |
| Cc1ncn(-c2nc(C(=O)NCc3ccc(F)c(C)c3)c(O)c(=O)n2C)n1 | 204 to 205 °C |
| COc1cc(Nc2c(C#N)cnc3cc(-c4ccc(CNCCS(=O)(=O)c5ccccc5)o4)ccc23)c(Cl)cc1Cl | 123 to 128 °C |
| O=C(CNc1ccccc1Cl)Nc1c(Cl)ccc2nc(N3CC[C@@H](O)C3)ccc12 | 215 to 219 °C |
| CC1(OCc2ccccc2Cl)COC(CCl)OC1 (stereo unspecified) | 53 to 54 °C |
| CC(C)(C)NC(=S)c1nn(-c2ccc(F)cc2F)c2c1C1CCC2C1 (stereo unspecified) | 148 to 150 °C |
| CS(=O)(=O)c1nccc(-c2c(-c3ccc(F)cc3)nc3sccn23)n1 | 197 to 198 °C |
| CC1CC(=O)C1(Cl)CC(Cl)(Cl)Cl (stereo unspecified) | 80 to 81 °C |
| CC(C)n1nc(-c2sc(C(=O)N3CCOCC3)nc2-c2ccccc2)ccc1=O | 162 °C |
| CCCOc1ncc(I)cc1-c1nc2c(CC)n(Cc3ccccn3)nc2c(=O)[nH]1 | 229 to 234 °C |
| CCOc1ccc(C(C)=O)cc1S(=O)(=O)NC(=O)Nc1nc(OC)cc(OC)n1 | 192 to 193 °C |
| CCCCCCCCCCCCCCCC(=O)OCC(CO)OC(=O)CCCCCCCCCCCCCCC (stereo unspecified) | 67 to 68 °C |
| COc1ccc(Sc2c(C(=O)O)[nH]c3cc(C)ccc23)cc1 | 190 to 192 °C |

| Structure (SMILES) | melting point |
| --- | --- |
| O=C(Oc1ccc(-c2ccccc2)cc1)Oc1ccc([N+](=O)[O-])cc1 | 138 to 140 °C |
| CC(=O)n1cc(Cl)c(-c2cc(Cl)cc(Cl)c2)n1 | 125 °C |
| CC=C(Cc1ccccc1)NNC(=O)OC(C)(C)C | 76 to 79 °C |
| CS(=O)(=O)c1ccc(/C(=C\C2CCCC2)C(=O)O)cc1 | 200 to 202 °C |
| Nc1ccc(Br)c2ccn3c(=O)c(C(=O)O)cnc3c12 | 283 to 284 °C |
| COP(=O)(Cc1cc(C(C)(C)C)c(O)c(C(C)(C)C)c1)c1ccccc1 (stereo unspecified) | 112 to 114 °C |
| O=C(O)c1ccc2nc3ccccn3c(=O)c2c1 | > 310 °C |
| CC(CCC(=O)OCc1ccccc1)C1CC=C2C3=C(CCC21C)C1(C)CCC(O)C(C)(C)C1CC3 (stereo unspecified) | 118 to 119 °C |
| Nc1ccc(-c2noc(-c3cnn4c(C(F)(F)F)cc(-c5ccc(Cl)c(Cl)c5)nc34)n2)cn1 | 289 °C |
| O=Cc1ccc(C2CCCc3cncn32)cc1 (stereo unspecified) | 131 °C |
| COc1cc2cc(C=Cc3ccccc3Cl)[nH]c2cc1OCc1ccccc1 | 192 to 194 °C |
| CCOCCn1c(C2CCN(C)C(c3ccc(C(C)(C)C)cc3)C2)nc2ccccc21 (stereo unspecified) | 51 to 53 °C |
| CCOc1nc2ccccc2nc1NC(=O)N1CCN(c2cc(Cl)cc(Cl)c2)CC1 | 157 to 159 °C |
| CCCCCCCOC(=S)SC(Cn1ccnc1)c1ccc(Cl)cc1Cl (stereo unspecified) | 107 to 113 °C |
| CNC(=NCCSCc1cc(CN(C)C)ccn1)NC#N | 114 to 116 °C |
| O=C(O)c1ccc(N(Cc2cncs2)c2ccc(OC(F)F)c(OC(F)F)c2)cc1 | 144 to 146 °C |
| CCCCc1nc(CCO)c[nH]1 | 92 to 93 °C |
| COC(=O)c1snc(-c2cccc(C)c2)c1C(=O)OC | 53 to 54.5 °C |
| O=C1Nc2ncccc2N2CCNCC12 (stereo unspecified) | 315 to 319 °C |
| CCc1cccc(C)c1CNc1nc(OC)cc2c1nc(C)n2C | 106 to 107 °C |
| CC(=O)OC1CSC(Oc2cc(F)ccc2-c2cccnc2)C(OC(C)=O)C1OC(C)=O (stereo unspecified) | 66 °C |
| CC1CCc2c(N3CCC(Cc4ccccc4)CC3)c(F)cc3c(=O)c(C(=O)O)cn1c23 (stereo unspecified) | 230 to 232 °C |
